Measurements reported in patent publication US8192962B2, “Processes for detecting toxic substances” (Daikin Industries, Ltd., priority 2001, dated 2012).

Test system: Energy system protein genes
Test: DNA chip mRNA expression in yeast, energy system protein genes (Table 4)
Format: cell-based, Saccharomyces cerevisiae S288C
Procedure, shortened: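 Ratios compare mRNA levels in stressed and control S. cerevisiae. Each toxicant was applied for two hours to log-phase cultures at 25° C. at a sub-lethal, growth-inhibiting level; fluorescent cDNA (Cy3- or Cy5-dUTP) was hybridized to a genome-wide yeast chip for over 12 h at 65° C.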

CN(C)C(=S)SSC(=S)N(C)C [(10), Tetramethylthiuram disulfide]
The level of expressed mRNA in the presence of chemical substance/The level of expressed mRNA in the absence of chemical substance (yeast gene YAL060W): 2.5 | The level of expressed mRNA in the presence of chemical substance/The level of expressed mRNA in the absence of chemical substance (yeast gene YBL058W, cells incubated two hours with the chemical substance): 2.1 | The level of expressed mRNA in the presence of chemical substance/The level of expressed mRNA in the absence of chemical substance (yeast gene YBL099W, cells incubated two hours with the chemical substance): 0.7 | The level of expressed mRNA in the presence of chemical substance/The level of expressed mRNA in the absence of chemical substance (yeast gene YBR001C, cells incubated two hours with the chemical substance): 2.1 | The level of expressed mRNA in the presence of chemical substance/The level of expressed mRNA in the absence of chemical substance (yeast gene YBR185C, cells incubated two hours with the chemical substance): 1.6 | The level of expressed mRNA in the presence of chemical substance/The level of expressed mRNA in the absence of chemical substance (yeast gene YBR221C, cells incubated two hours with the chemical substance): 1.3 | The level of expressed mRNA in the presence of chemical substance/The level of expressed mRNA in the absence of chemical substance (yeast gene YCL040W): 3.0 | The level of expressed mRNA in the presence of chemical substance/The level of expressed mRNA in the absence of chemical substance (yeast gene YCR012W): 1.5 | The level of expressed mRNA in the presence of chemical substance/The level of expressed mRNA in the absence of chemical substance (yeast gene YCR046C, cells incubated two hours with the chemical substance): 1.4 | The level of expressed mRNA in the presence of chemical substance/The level of expressed mRNA in the absence of chemical substance (yeast gene YCR105W, cells incubated two hours with the chemical substance): 3.9 | The level of expressed mRNA in the presence of chemical substance/The level of expressed mRNA in the absence of chemical substance (yeast gene YDL021W): 7.4 | The level of expressed mRNA in the presence of chemical substance/The level of expressed mRNA in the absence of chemical substance (yeast gene YDL067C, cells incubated two hours with the chemical substance): 0.9 | The level of expressed mRNA in the presence of chemical substance/The level of expressed mRNA in the absence of chemical substance (yeast gene YDL078C, cells incubated two hours with the chemical substance): 1.0 | The level of expressed mRNA in the presence of chemical substance/The level of expressed mRNA in the absence of chemical substance (yeast gene YDL107W, cells incubated two hours with the chemical substance): 1.8 | The level of expressed mRNA in the presence of chemical substance/The level of expressed mRNA in the absence of chemical substance (yeast gene YDL174C): 1.7 | The level of expressed mRNA in the presence of chemical substance/The level of expressed mRNA in the absence of chemical substance (yeast gene YDL181W, cells incubated two hours with the chemical substance): 0.8 | The level of expressed mRNA in the presence of chemical substance/The level of expressed mRNA in the absence of chemical substance (yeast gene YDR001C): 3.0 | The level of expressed mRNA in the presence of chemical substance/The level of expressed mRNA in the absence of chemical substance (yeast gene YDR050C, cells incubated two hours with the chemical substance): 1.3 | The level of expressed mRNA in the presence of chemical substance/The level of expressed mRNA in the absence of chemical substance (yeast gene YDR079W, cells incubated two hours with the chemical substance): 0.8 | The level of expressed mRNA in the presence of chemical substance/The level of expressed mRNA in the absence of chemical substance (yeast gene YDR178W, cells incubated two hours with the chemical substance): 0.8 | The level of expressed mRNA in the presence of chemical substance/The level of expressed mRNA in the absence of chemical substance (yeast gene YDR231C): 1.4 | The level of expressed mRNA in the presence of chemical substance/The level of expressed mRNA in the absence of chemical substance (yeast gene YDR298C, cells incubated two hours with the chemical substance): 1.6 | The level of expressed mRNA in the presence of chemical substance/The level of expressed mRNA in the absence of chemical substance (yeast gene YDR377W, cells incubated two hours with the chemical substance): 0.9 | The level of expressed mRNA in the presence of chemical substance/The level of expressed mRNA in the absence of chemical substance (yeast gene YDR529C, cells incubated two hours with the chemical substance): 0.6 | The level of expressed mRNA in the presence of chemical substance/The level of expressed mRNA in the absence of chemical substance (yeast gene YEL024W, cells incubated two hours with the chemical substance): 0.6 | The level of expressed mRNA in the presence of chemical substance/The level of expressed mRNA in the absence of chemical substance (yeast gene YEL039C, cells incubated two hours with the chemical substance): 1.2 | The level of expressed mRNA in the presence of chemical substance/The level of expressed mRNA in the absence of chemical substance (yeast gene YER178W): 1.3 | The level of expressed mRNA in the presence of chemical substance/The level of expressed mRNA in the absence of chemical substance (yeast gene YFL057C): 46.1 | The level of expressed mRNA in the presence of chemical substance/The level of expressed mRNA in the absence of chemical substance (yeast gene YFR053C): 1.1 | The level of expressed mRNA in the presence of chemical substance/The level of expressed mRNA in the absence of chemical substance (yeast gene YGL018C, cells incubated two hours with the chemical substance): 1.4 | The level of expressed mRNA in the presence of chemical substance/The level of expressed mRNA in the absence of chemical substance (yeast gene YGL062W): 2.5 | The level of expressed mRNA in the presence of chemical substance/The level of expressed mRNA in the absence of chemical substance (yeast gene YGL187C, cells incubated two hours with the chemical substance): 0.6 | The level of expressed mRNA in the presence of chemical substance/The level of expressed mRNA in the absence of chemical substance (yeast gene YGL191W, cells incubated two hours with the chemical substance): 1.3 | The level of expressed mRNA in the presence of chemical substance/The level of expressed mRNA in the absence of chemical substance (yeast gene YGL205W, cells incubated two hours with the chemical substance): 0.6 | The level of expressed mRNA in the presence of chemical substance/The level of expressed mRNA in the absence of chemical substance (yeast gene YGL256W, cells incubated two hours with the chemical substance): 1.2 | The level of expressed mRNA in the presence of chemical substance/The level of expressed mRNA in the absence of chemical substance (yeast gene YGR008C): 2.4 | The level of expressed mRNA in the presence of chemical substance/The level of expressed mRNA in the absence of chemical substance (yeast gene YGR043C): 8.4 | The level of expressed mRNA in the presence of chemical substance/The level of expressed mRNA in the absence of chemical substance (yeast gene YGR062C, cells incubated two hours with the chemical substance, 25° C., YPD medium): 1.4 | The level of expressed mRNA in the presence of chemical substance/The level of expressed mRNA in the absence of chemical substance (yeast gene YGR087C, cells incubated two hours with the chemical substance): 0.9 | The level of expressed mRNA in the presence of chemical substance/The level of expressed mRNA in the absence of chemical substance (yeast gene YGR174C, cells incubated two hours with the chemical substance): 0.7 | The level of expressed mRNA in the presence of chemical substance/The level of expressed mRNA in the absence of chemical substance (yeast gene YGR192C): 1.3 | The level of expressed mRNA in the presence of chemical substance/The level of expressed mRNA in the absence of chemical substance (yeast gene YGR207C): 2.6 | The level of expressed mRNA in the presence of chemical substance/The level of expressed mRNA in the absence of chemical substance (yeast gene YGR244C): 1.1 | The level of expressed mRNA in the presence of chemical substance/The level of expressed mRNA in the absence of chemical substance (yeast gene YGR254W): 1.2 | The level of expressed mRNA in the presence of chemical substance/The level of expressed mRNA in the absence of chemical substance (yeast gene YGR256W): 2.5 | The level of expressed mRNA in the presence of chemical substance/The level of expressed mRNA in the absence of chemical substance (yeast gene YHL008C): 1.7 | The level of expressed mRNA in the presence of chemical substance/The level of expressed mRNA in the absence of chemical substance (yeast gene YHR179W): 5.8 | The level of expressed mRNA in the presence of chemical substance/The level of expressed mRNA in the absence of chemical substance (yeast gene YIL160C): 3.8 | The level of expressed mRNA in the presence of chemical substance/The level of expressed mRNA in the absence of chemical substance (yeast gene YIL172C): 7.1 | The level of expressed mRNA in the presence of chemical substance/The level of expressed mRNA in the absence of chemical substance (yeast gene YIR031C, cells incubated two hours with the chemical substance): 1.0 | The level of expressed mRNA in the presence of chemical substance/The level of expressed mRNA in the absence of chemical substance (yeast gene YJL052W): 2.0 | The level of expressed mRNA in the presence of chemical substance/The level of expressed mRNA in the absence of chemical substance (yeast gene YJL121C, cells incubated two hours with the chemical substance): 0.4 | The level of expressed mRNA in the presence of chemical substance/The level of expressed mRNA in the absence of chemical substance (yeast gene YJL166W, cells incubated two hours with the chemical substance): 1.2
